Measurements from patent publication US10376476B2, “Panicein compounds, compositions and uses thereof” (CENTRE NATIONAL DE LA RECHERCHE SCIENTIFIQUE, priority 2014, dated 2019).

Target: T1, mutant Patched G509VD513Y (hPtcVXXXY) expressed in yeasts (Homo sapiens, UniProt Q13635, D513Y/G509V)
T1 construct: MAP; expressed in transfected cells; host or cells: Saccharomyces cerevisiae K699
T1 sequence (Q13635 1-1447 G509V/D513Y): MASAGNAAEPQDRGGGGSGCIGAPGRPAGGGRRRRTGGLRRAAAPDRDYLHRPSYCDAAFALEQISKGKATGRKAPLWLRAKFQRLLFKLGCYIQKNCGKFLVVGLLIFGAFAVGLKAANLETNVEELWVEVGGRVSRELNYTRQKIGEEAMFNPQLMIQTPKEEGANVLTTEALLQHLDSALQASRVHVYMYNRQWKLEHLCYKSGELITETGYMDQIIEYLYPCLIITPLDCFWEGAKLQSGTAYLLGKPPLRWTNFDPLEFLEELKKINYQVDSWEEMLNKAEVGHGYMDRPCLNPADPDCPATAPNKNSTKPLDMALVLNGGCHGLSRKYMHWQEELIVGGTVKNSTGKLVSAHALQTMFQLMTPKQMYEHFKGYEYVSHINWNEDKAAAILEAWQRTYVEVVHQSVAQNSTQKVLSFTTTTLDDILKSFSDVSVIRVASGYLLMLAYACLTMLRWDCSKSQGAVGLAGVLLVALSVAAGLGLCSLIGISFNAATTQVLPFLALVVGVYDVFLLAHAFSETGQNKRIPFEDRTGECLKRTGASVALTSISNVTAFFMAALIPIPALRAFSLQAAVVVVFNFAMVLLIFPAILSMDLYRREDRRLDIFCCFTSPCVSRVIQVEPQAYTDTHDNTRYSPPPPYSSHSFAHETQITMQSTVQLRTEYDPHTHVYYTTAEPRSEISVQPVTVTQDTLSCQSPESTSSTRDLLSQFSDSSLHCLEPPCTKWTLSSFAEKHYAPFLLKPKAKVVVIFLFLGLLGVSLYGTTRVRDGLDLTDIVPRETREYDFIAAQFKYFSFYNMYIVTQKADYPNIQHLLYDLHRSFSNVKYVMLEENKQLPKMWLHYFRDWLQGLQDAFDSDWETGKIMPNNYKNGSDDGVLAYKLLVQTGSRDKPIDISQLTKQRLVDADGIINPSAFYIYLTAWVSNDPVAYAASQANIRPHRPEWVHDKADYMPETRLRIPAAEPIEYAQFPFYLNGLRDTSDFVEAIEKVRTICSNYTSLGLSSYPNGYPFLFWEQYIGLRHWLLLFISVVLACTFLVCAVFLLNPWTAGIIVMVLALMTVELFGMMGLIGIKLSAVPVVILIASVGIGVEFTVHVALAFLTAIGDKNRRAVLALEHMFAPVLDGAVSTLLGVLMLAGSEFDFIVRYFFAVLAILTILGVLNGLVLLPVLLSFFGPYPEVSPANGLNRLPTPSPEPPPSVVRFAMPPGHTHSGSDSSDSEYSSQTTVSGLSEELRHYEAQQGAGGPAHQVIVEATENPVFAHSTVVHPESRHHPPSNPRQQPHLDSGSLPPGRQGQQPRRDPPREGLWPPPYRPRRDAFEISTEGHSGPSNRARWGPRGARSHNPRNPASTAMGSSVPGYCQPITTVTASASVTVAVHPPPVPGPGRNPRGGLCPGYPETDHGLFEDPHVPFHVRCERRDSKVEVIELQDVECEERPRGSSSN
Assay: Doxorubicin efflux from yeasts (intracellular dxr fluorescence)
Type: cell-based
Settings: hPtc-YXXXG-yeasts (mutant Patched), 10 μM paniceins, 10 min, 5 mM 2-deoxy-D-glucose
Method: A. Compound P5 inhibits doxorubicin efflux from melanoma cells MeWo and A375. Cells were grown on cover-slips, incubated for 2 hour at 37° C. with 10 μM doxorubicin and quickly rinsed with phosphate buffer (pH 7.4). One cover-slip of each cell line was immediately fixed for doxorubicin charge control. The other cover-slips were incubated with buffer supplemented with DMSO or 10 μM of compound P5 30 min under gentle shaking and immediately fixed. Dxr intracellular fluorescence was visualized by epifluorescence and analyzed using Image J software on more than 30 cells of 3 different fields for each condition. The results were analyzed using the Student t test in which significance is attained at P<0.05 (**: P<0.005, ***: P<0.0005). B. Paniceins inhibit doxorubicin efflux from Patched-expressing yeasts. Yeasts expressing wild-type Patched (hPtc, in black), mutant Patched G509VD513Y (hPtcVXXXY, in grey), and control yeasts (in white) were incubated in buffer supplemented with 5 mM of 2-deoxy-D-glucose and 10 μM dxr for 2 hours at 4° C. After centrifugation and supernatant removing, one sample was immediately fixed for charge control and the other samples were resuspended in buffer containing 5 mM of 2-deoxy-D-glucose supplemented with DMSO or 10 μM of paniceins 10 minutes at 25° C. with gentle shaking. After centrifugation and supernatant removing, samples were fixed and deposited on coverslips for epifluorescence microscopy observation. Dxr intracellular fluorescence quantification was carried out using Image J software on more than 30 yeasts on 3 different fields for each condition. The results were analyzed using the Student t test in which significance is attained at P<0.05 (*).
On yeasts: Yeasts expressing Patched (hPtc), mutant Patched (hPtcG509VD513Y), or control yeasts were washed with cold water, resuspended at an OD600 of 10 in Hepes-NaOH buffer (pH 7.0) supplemented with 5 mM of 2-deoxy-D-glucose, and incubated with 10 μM doxorubicin for 2 hours at 4° C. in the cold room on a rotating wheel protected from light. Yeasts were centrifuged and the supernatant was removed. One sample was immediately fixed with 4% paraformaldehyde for doxorubicin loading control. The other samples were resuspended in Hepes-NaOH buffer (pH 7.0) containing 5 mM of 2-deoxy-D-glucose supplemented with DMSO or 10 μM of paniceins, and incubated 10 minutes at 20° C. with gentle shaking in a Benchmark Multi-therm shaker protected from light. Samples were centrifuged for 1 minute at 18,000 g, supernatants were removed and yeasts were fixed with 4% paraformaldehyde. 10 μL of each sample were deposited on a coverslip and observed by epifluorescence microscopy using an objective 63x and filters for Alexa 594. Quantification of doxorubicin intracellular fluorescence was carried out using Image J software on more than 30 yeasts on 3 different fields for each condition. The results were analyzed using the Student t test in which significance is attained at P <0.05.
In order to see if Paniceins inhibit dxr efflux through Patched inhibition, inventors compared dxr efflux on yeasts over-expressing human Patched and control yeasts. After loading with dxr, yeasts were centrifuged and fixed for dxr loading control (LC), or resuspended in buffer supplemented with DMSO or paniceins for efflux measurements. After 10 min a 20° C., yeasts were collected, fixed and deposited on cover-slips. 2-deoxy-D-glucose was added in buffer during loading and efflux in order to inhibit ATP-binding cassette (ABC) transporters. Dxr fluorescence intensity of at least 30 yeasts was measured for each experiment. FIGS. 6A and 12A show the mean fluorescence intensity of 3 independent experiments. […] This was confirmed using yeasts over-expressing Patched mutant VXXXY. […] Yeasts over-expressing hPtcVXXXY are less resistance to growth inhibition by dxr than yeasts over-expressing wild-type hPtc (Bidet et al., 2012).

SMILES | Efflux (%) of dxr [%]
C/C(=C\Cc1cc(O)ccc1O)CCc1c(C)cc(O)c(C=O)c1C [P3, Panicein B3] | 32
Cc1cc(O)c(C=O)c(C)c1CCC1(C)C=Cc2cc(O)ccc2O1 (stereo not shown) [P4, Panicein B2] | 38
COc1cc(C)c(CC/C(C)=C/Cc2cc(O)ccc2O)c(C)c1C [P5, Panicein A hydroquinone] | 42
C/C(=C\Cc1cc(O)ccc1O)CCc1c(C)c(O)c(O)c(C=O)c1C [P2, Panicein C] | 39
